Measured values as given in patent publication US12190997B2, “Genetically altered LysM receptors with altered agonist specificity and affinity” (Aarhus Universitet, priority 2018, dated 2025).

Legend:
[1] = test system: ectodomain where LysM2 from LjLYS11 was replaced with LysM2 from LjNFR5; assay: BLI binding of LjLYS11 ectodomain with LysM2 replaced by LysM2 from LjNFR5; design: species or system Lotus japonicus; details: FIG. 15D
Method: Biolayer interferometry (BLI): Binding of LjLYS11 ectodomain and domain-swapped versions of LjLYS11 ectodomain to ligands was measured on an Octet RED 96 system (Pall ForteBio). The ligands used were CO5 chitin oligomer (corresponding to the backbone of S. meliloti LCO-V), M. loti LCO, and S. meliloti LCO. S. meliloti LCO consists of a tetrameric/pentameric N-acetylglucosamine backbone that is O-sulfated on the reducing terminal residue, O-acetylated on the non-reducing terminal residue, and mono-N-acylated by unsaturated C16 acyl groups. M. loti LCO is a pentameric N-acetylglucosamine with a cis-vaccenic acid and a carbamoyl group at the non-reducing terminal residue together with a 2,4-O-acetylfucose at the reducing terminal residue. Biotinylated ligand conjugates were immobilized on streptavidin biosensors (kinetic quality, Pall ForteBio) at a concentration of 125-250 nM for 5 minutes. Data analysis was performed in GraphPad Prism 6 software (GraphPad Software, Inc.). Equilibrium dissociation constants derived from the steady-state were determined by applying a non-linear regression (one site, specific binding) to the response at equilibrium plotted against the protein concentration. Kinetic parameters were determined by non-linear regression (association followed by dissociation) on the subtracted data. […]

[2] = molecular target: LjLYS11 ectodomain (Lotus japonicus, UniProt D3KTZ8); assay: BLI binding of LjLYS11 ectodomain to ligands; details: FIG. 15C
Chain of LjLYS11 ectodomain (D3KTZ8 entry or part of it): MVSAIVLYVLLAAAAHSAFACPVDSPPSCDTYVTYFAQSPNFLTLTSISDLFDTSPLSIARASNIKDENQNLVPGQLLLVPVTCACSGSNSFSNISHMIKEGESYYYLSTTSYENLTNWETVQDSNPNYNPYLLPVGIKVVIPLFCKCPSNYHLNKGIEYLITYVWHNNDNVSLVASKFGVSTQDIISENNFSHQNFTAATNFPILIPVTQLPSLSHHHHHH
Method: LjLYS11 ectodomain production and purification: The LjLYS11 ectodomain (residues 26-234; SEQ ID NO:60) was codon-optimized for insect cell expression (Genscript, Piscataway, USA) and cloned into the pOET4 baculovirus transfer vector (Oxford Expression Technologies). The native LjLYS11 signal peptide was replaced with the gp64 signal peptide (SEQ ID NO:59) to facilitate secretion and a hexa-histidine (6×His; SEQ ID NO:61) tag was added to the C-terminus (LjLYS11-ecto (26-234), N-term gp64, C-term 6His=SEQ ID NO:56). Recombinant baculoviruses were produced in Sf9 cells (Spodoptera frugiperda) using the FlashBac Gold kit (Oxford Expression technologies) according to the manufacturer's instructions with Lipofectin (ThermoFisher Scientific) as a transfection reagent. Protein expression was performed as follows. […]
Biolayer interferometry (BLI): Binding of LjLYS11 ectodomain and domain-swapped versions of LjLYS11 ectodomain to ligands was measured on an Octet RED 96 system (Pall ForteBio). […] Equilibrium dissociation constants derived from the steady-state were determined by applying a non-linear regression (one site, specific binding) to the response at equilibrium plotted against the protein concentration. Kinetic parameters were determined by non-linear regression (association followed by dissociation) on the subtracted data. […]

[3] = test system: HvRLK4 ectodomain; assay: BLI binding of HvRLK4 ectodomain to ligands; design: species or system Hordeum vulgare; details: FIGS. 16E, 16G-16H
Method: (§1) Expression and purification of ectodomain: The HvRLK10 ectodomain (residues 25-231; SEQ ID NO:66) was codon-optimized for insect cell expression (Genscript, Piscataway, USA) and cloned into the pOET4 baculovirus transfer vector (Oxford Expression Technologies). The native HvRLK10 signal peptide was replaced with the gp64 signal peptide (SEQ ID NO:59) to facilitate secretion and a hexa-histidine (6×HIS; SEQ ID NO:61) tag was added to the C-terminus (HvRLK10-ecto (25-231), N-term gp64, C-term 6His=SEQ ID NO:65). The HvRLK4 ectodomain (residues 27-228; SEQ ID NO:68) was codon-optimized for insect cell expression (Genscript, Piscataway, USA) and cloned into the pOET4 baculovirus transfer vector (Oxford Expression Technologies). […]
(§2) Biolayer interferometry (BLI): Binding of HvRLK10 ectodomain or HvRLK4 ectodomain to ligands was measured on an Octet RED 96 system (Pall ForteBio). […] Equilibrium dissociation constants derived from the steady-state were determined by applying a non-linear regression (one site, specific binding) to the response at equilibrium plotted against the protein concentration. Kinetic parameters were determined by non-linear regression (association followed by dissociation) on the subtracted data.

[4] = test system: HvRLK10 ectodomain; assay: BLI binding of HvRLK10 ectodomain to ligands; design: species or system Hordeum vulgare; details: FIGS. 16A, 16C-16D
Method: as §1, §2

For `CC(=O)N[C@H]1[C@H](O[C@H]2[C@H](O)[C@@H](NC(C)=O)[C@H](O[C@H]3[C@H](O)[C@@H](NC(C)=O)C(O)O[C@@H]3CO)O[C@@H]2CO)O[C@H](CO)[C@@H](O[C@@H]2O[C@H](CO)[C@@H](O[C@@H]3O[C@H](CO)[C@@H](O)[C@H](O)[C@H]3NC(C)=O)[C@H](O)[C@H]2NC(C)=O)[C@@H]1O` (stereo partly shown) [CO5], the “binding compared with unmodified LjLYS11 ectodomain” value [1] was “loss of ability to bind”, the binding [2] was “able to bind” and the binding [3] was “did not bind”. For the same compound, the binding [4] was “did not bind”.
